Test results: patent EP2697230B1, “COMPOUNDS FOR THE TREATMENT OF HEPATITIS C” (priority 2011, dated 2012)
Where two headings read alike, the source gives them in different places.

Test system: HCV pseudoparticles, genotype 1a HCV E1 and E2 envelope (H77C isolate)
Assay: HCV pseudoparticle infection assay (luciferase reporter, Huh7 cells)
Type: cell-based
[1] = Hepatitis C virus, Huh-7, 48 h, read-out: EC50 (nM) 1a (H77C), class symbol, HCV pseudoparticles genotype 1a (H77C), luciferase 2 days after infection
[2] = Hepatitis C virus, Huh-7, 48 h, read-out: EC50 (nM) 1a (H77C), numeric value, HCV pseudoparticles genotype 1a (H77C), luciferase 2 days after infection

## CC(C)(C)OC(=O)N1CCCOc2ccc(cc2)CNc2nc(nc(OCC(F)(F)F)n2)Nc2ccc(cc2)C(=O)NCC1 [Example 6002]
[1]
  EC50: 0.1 to 100 nM

## COC(=O)N1CCCOc2ccc(cc2)CNc2nc(nc(OCC(F)(F)F)n2)Nc2ccc(cc2)C(=O)NCC1 [Example 6006]
[1]
  EC50: 0.1 to 100 nM

## O=C1NCCCNCCCOc2ccc(cc2)CNc2nc(nc(OCC(F)(F)F)n2)Nc2ccc1cc2 [Example 6011]
[1]
  EC50: 0.1 to 100 nM

## CCNC(=O)N1CCCNC(=O)c2ccc(cc2)Nc2nc(nc(OCC(F)(F)F)n2)NCc2ccc(cc2)OCCC1 [Example 6012]
[1]
  EC50: 0.1 to 100 nM
[2]
  EC50: 6.1 nM

## COC(=O)N1CCCNC(=O)c2ccc(cc2)Nc2nc(nc(OCC(F)(F)F)n2)NCc2ccc(cc2)OCCC1 [Example 6014]
[1]
  EC50: 0.1 to 100 nM
[2]
  EC50: 1.51 nM

## CCOC(=O)N1CCCNC(=O)c2ccc(cc2)Nc2nc(nc(OCC(F)(F)F)n2)NCc2ccc(cc2)OCCC1 [Example 6015]
[1]
  EC50: 0.1 to 100 nM

## CCCOC(=O)N1CCCNC(=O)c2ccc(cc2)Nc2nc(nc(OCC(F)(F)F)n2)NCc2ccc(cc2)OCCC1 [Example 6016]
[1]
  EC50: 0.1 to 100 nM

## CC(C)(C)OC(=O)N1CCCNC(=O)c2ccc(cc2)Nc2nc(nc(OCC(F)(F)F)n2)NCc2ccc(cc2)OCCC1 [Example 6017]
[1]
  EC50: 0.1 to 100 nM

## CN1CCCNC(=O)c2ccc(cc2)Nc2nc(nc(OCC(F)(F)F)n2)NCc2ccc(cc2)OCCC1 [Example 6018]
[1]
  EC50: 0.1 to 100 nM

## CCCCN1CCCNC(=O)c2ccc(cc2)Nc2nc(nc(OCC(F)(F)F)n2)NCc2ccc(cc2)OCCC1 [Example 6019]
[1]
  EC50: 0.1 to 100 nM

## CC(C)CN1CCCNC(=O)c2ccc(cc2)Nc2nc(nc(OCC(F)(F)F)n2)NCc2ccc(cc2)OCCC1 [Example 6020]
[1]
  EC50: 0.1 to 100 nM

## CNC(=O)N1CCCCNC(=O)c2ccc(cc2)Nc2nc(nc(OCC(F)(F)F)n2)NCc2ccc(cc2)OCCC1 [Example 6021]
[1]
  EC50: 0.1 to 100 nM

## CCNC(=O)N1CCCCNC(=O)c2ccc(cc2)Nc2nc(nc(OCC(F)(F)F)n2)NCc2ccc(cc2)OCCC1 [Example 6022]
[1]
  EC50: 0.1 to 100 nM
[2]
  EC50: 11.8 nM

## CC(C)(C)NC(=O)N1CCCCNC(=O)c2ccc(cc2)Nc2nc(nc(OCC(F)(F)F)n2)NCc2ccc(cc2)OCCC1 [Example 6023]
[1]
  EC50: 0.1 to 100 nM

## CC1(C)CNCCCOc2ccc(cc2)CNc2nc(nc(OCC(F)(F)F)n2)Nc2ccc(cc2)C(=O)NC1 [Example 6024]
[1]
  EC50: 0.1 to 100 nM

## CC(C)N1CCCNC(=O)c2ccc(cc2)Nc2nc(nc(OCC(F)(F)F)n2)NCc2ccc(cc2)OCCC1 [Example 6025]
[1]
  EC50: 0.1 to 100 nM

## CCN1CCCNC(=O)c2ccc(cc2)Nc2nc(nc(OCC(F)(F)F)n2)NCc2ccc(cc2)OCCC1 [Example 6026]
[1]
  EC50: 0.1 to 100 nM

## CCCN1CCCNC(=O)c2ccc(cc2)Nc2nc(nc(OCC(F)(F)F)n2)NCc2ccc(cc2)OCCC1 [Example 6027]
[1]
  EC50: 0.1 to 100 nM

## CCNC(=O)N1CCCOc2ccc(cc2)CNc2nc(nc(OCC(F)(F)F)n2)Nc2ccc(cc2)C(=O)NCC(C)(C)C1 [Example 6028]
[1]
  EC50: 0.1 to 100 nM

## CCCNC(=O)N1CCCOc2ccc(cc2)CNc2nc(nc(OCC(F)(F)F)n2)Nc2ccc(cc2)C(=O)NCC(C)(C)C1 [Example 6030]
[1]
  EC50: 0.1 to 100 nM

## CC1(C)CNC(=O)c2ccc(cc2)Nc2nc(nc(OCC(F)(F)F)n2)NCc2ccc(cc2)OCCCN(C(=O)NC(C)(C)C)C1 [Example 6031]
[1]
  EC50: 0.1 to 100 nM

## COC(=O)N1CCCOc2ccc(cc2)CNc2nc(nc(OCC(F)(F)F)n2)Nc2ccc(cc2)C(=O)NCC(C)(C)C1 [Example 6032]
[1]
  EC50: 0.1 to 100 nM

## CCCOC(=O)N1CCCOc2ccc(cc2)CNc2nc(nc(OCC(F)(F)F)n2)Nc2ccc(cc2)C(=O)NCC(C)(C)C1 [Example 6034]
[1]
  EC50: 0.1 to 100 nM

## CC(C)OC(=O)N1CCCOc2ccc(cc2)CNc2nc(nc(OCC(F)(F)F)n2)Nc2ccc(cc2)C(=O)NCC(C)(C)C1 [Example 6035]
[1]
  EC50: 0.1 to 100 nM

## CC1(C)CNC(=O)c2ccc(cc2)Nc2nc(nc(OCC(F)(F)F)n2)NCc2ccc(cc2)OCCCN(C(=O)OC(C)(C)C)C1 [Example 6036]
[1]
  EC50: 0.1 to 100 nM

## CC(C)NC(=O)N1CCCOc2ccc(cc2)CNc2nc(nc(OCC(F)(F)F)n2)Nc2ccc(cc2)C(=O)NCC(C)(C)C1 [Example 6037]
[1]
  EC50: 0.1 to 100 nM

## CNC(=O)N1CCCOc2ccc(cc2)CNc2nc(nc(OCC(F)(F)F)n2)Nc2ccc(cc2)C(=O)NCC(C)(C)C1 [Example 6038]
[1]
  EC50: 0.1 to 100 nM

## CN1CCCOc2ccc(cc2)CNc2nc(nc(OCC(F)(F)F)n2)Nc2ccc(cc2)C(=O)NCC(C)(C)C1 [Example 6040]
[1]
  EC50: 0.1 to 100 nM

## CCN1CCCOc2ccc(cc2)CNc2nc(nc(OCC(F)(F)F)n2)Nc2ccc(cc2)C(=O)NCC(C)(C)C1 [Example 6041]
[1]
  EC50: 0.1 to 100 nM

## O=C1NCCCNCCCCCCCCNc2nc(nc(OCC(F)(F)F)n2)Nc2ccc1cc2 [Example 9001]
Class symbol, HCV pseudoparticles genotype 1a (H77C), luciferase 2 days after infection, read-out: EC50 (nM) 1a (H77C)
  EC50: 100 to 1000 nM
Numeric value, HCV pseudoparticles genotype 1a (H77C), luciferase 2 days after infection, read-out: EC50 (nM) 1a (H77C)
  EC50: 243 nM

## COC(=O)N1CCCCCCCCNc2nc(nc(OCC(F)(F)F)n2)Nc2ccc(cc2)C(=O)NCCC1 [Example 9003]
[1]
  EC50: 0.1 to 100 nM

## CCCOC(=O)N1CCCCCCCCNc2nc(nc(OCC(F)(F)F)n2)Nc2ccc(cc2)C(=O)NCCC1 [Example 9004]
[1]
  EC50: 0.1 to 100 nM

## CNC(=O)N1CCCCCCCCNc2nc(nc(OCC(F)(F)F)n2)Nc2ccc(cc2)C(=O)NCCC1 [Example 9006]
[1]
  EC50: 0.1 to 100 nM

## CC(C)(C)NC(=O)N1CCCCCCCCNc2nc(nc(OCC(F)(F)F)n2)Nc2ccc(cc2)C(=O)NCCC1 [Example 9008]
[1]
  EC50: 0.1 to 100 nM

## CC(=O)N1CCCCCCCCNc2nc(nc(OCC(F)(F)F)n2)Nc2ccc(cc2)C(=O)NCCC1 [Example 9009]
[1]
  EC50: 0.1 to 100 nM
